Legend:
[1] = Analytical HPLC of Pluronic F-127 formulated substrates reconstituted in water (Examples 34-36); assay type: physicochemical
Experimental: 2.5 mgs of Pluronic® F-127 (Sigma Aldrich) were massed out into […] snap-top Eppendorf tubes. The polymer was heated to 70° C. in a water bath until melted, becoming a clear solution. […] 5 μL of this stock was added to the melted polymer and pipetted to mix. […] Condition 2—After addition of substrate, the substrate/polymer solution was further diluted with 45 μL of water, frozen, and lyophilized overnight.
Samples from both conditions 1 and 2 were reconstituted in water, diluted to 100 μM, and analyzed for chemical integrity via analytical HPLC (FIG. 54).
This formulation was also prepared for the coelenterazine analog, furimazine. 2.5 mgs of Pluronic® F-127(Sigma Aldrich) were massed out into 1.5 mL, snap-top Eppendorf tubes. The polymer was heated to 70° C. in a water bath until melted. A 10 mM stock solution of furimazine was prepared in EtOH. 5 μL of this stock was then added to the melted polymer and pipetted to mix. […] Condition 2—After addition of substrate, the substrate/polymer solution was further diluted with 45 μL of water, frozen, and then lyophilized overnight.
25 mgs of Pluronic® F-127 were massed out into a 1.5 mL, snap-top Eppendorf tube. The polymer was heated to 70° C. in a water bath until melted. […] An additional 50 μL of EtOH was used to wash and aid transfer of the substrate into the polymer solution. The solvent was removed under reduced pressure without heat.
After lyophilization, each sample was reconstituted with either 500 μL, 400 μL, 250 μL, or 100 μL water, respectively.

[2] = Absorbance of reconstituted furimazine compositions (Example 2); assay type: physicochemical
Experimental: Bulk solid furimazine was diluted in ethanol to a final concentration of 10 mM (solution 1). […] After mixing, vials containing solutions 3a-e were placed in dry ice to freeze for 1 hour. These frozen stocks where then lyophilized overnight for form dry pullulan matrices containing furimazine. […] Absorbance spectra of the formulated dry furimazine (50 nmols) with increasing amounts of pullulan after reconstitution in the PBS buffer are shown in FIG. 4A. Formulated furimazine with pullulan led to an increase in furimazine absorbance in aqueous solution. Concentration of furimazine was determined by Beer's law using the extinction coefficient of furimazine in methanol (21000 M^−1cm^−1) with absorbance measured at 254 nm. […] Absorbance of the formulated furimazine (95 μg) with increasing amounts of pullulan after reconstitution in the PBS buffer are shown in FIG. 4B. The solid furimazine formulated with increasing concentrations of pullulan matrix led to an increased in absorbance, and thus furimazine concentration in PBS buffer, compared to the conditions that contained only furimazine without pullulan.

[3] = target: T1, cell culture expressing NanoLuc® enzyme (Oplophorus gracilirostris, UniProt Q9GV45, A31E/A60N/A81I/F95D/I117V/K70R/L54V/L99Q/M102K/N193R/P142E/Q151K/Q38R/Q45L/V71I/Y165I); test: Luminescence intensity of Nano-Glo substrate formulations with cell culture expressing NanoLuc (Examples 30-33); assay type: cell-based; conditions: Example 32; 100 mM HP-β-CD
T1 construct: expressed in transfected cells
T1 sequence (Q9GV45 28-196 with tags or gaps with the stated changes limits assumed): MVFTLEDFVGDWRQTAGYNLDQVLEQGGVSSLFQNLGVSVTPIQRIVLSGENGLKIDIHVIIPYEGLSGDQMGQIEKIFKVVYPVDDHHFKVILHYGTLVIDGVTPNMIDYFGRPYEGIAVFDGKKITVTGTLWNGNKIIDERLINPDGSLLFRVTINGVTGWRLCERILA
Experimental: One volume of Nano-Glo® Luciferase Assay Substrate (Promega Cat. #N113) was combined with 50 volumes of Nano-Glo® Luciferase Assay Buffer (Promega Cat. #N112) containing sodium ascorbate at concentrations ranging from 0 to 300 mM. The solutions were incubated at 37° C. prior to assay at several time points. Nano-Glo® Luciferase Assay Substrate used according to manufacturer's instructions (stored at −20° C. during the course of the experiment and reconstituted for each time point) was used as a positive control. A cell culture expressing NanoLuc® enzyme was used as a sample for each time point. One volume of reconstituted Nano-Glo® Luciferase Assay Buffer was mixed with one volume of sample. After 3 minutes, the luminescence intensity was measured with a Bio-Tek Synergy® H1 96-well plate reader. For each sample, the luminescence intensity was background subtracted and normalized to the −20° C. control signal.
A 4× furimazine solution was prepared by diluting the stock 1:25 in a buffer containing 200 mM MES pH 6.0, 200 mM hydroxypropyl-β-cyclodextrin (HP-β-CD), and 600 mM sodium ascorbate. The solution was lyophilized for 48 hours using a Virtis Advantage Pro® Lyophilizer. […] After 3 min, the luminescence intensity was measured with a Bio-Tek Synergy H1 96-well plate reader. […] For each sample, the luminescence intensity was background subtracted and normalized to the −20° C. control signal. […]

With `O=c1c(Cc2ccco2)nc2c(Cc3ccccc3)[nH]c(-c3cccc(O)c3)cn1-2` [JRW-0238, 8-benzyl-2-(furan-2-ylmethyl)-6-(3-hydroxyphenyl)imidazo[1,2-a]pyrazin-3(7H)-one] the “Area Percent, peak at retention time 6.969-6.985 min” value ([1]; Example 34) was 1.571%.

With `O=c1c(Cc2ccco2)nc2c(Cc3ccccc3)[nH]c(-c3ccccc3)cn1-2` [furimazine, 8-benzyl-2-(furan-2-ylmethyl)-6-phenylimidazo[1,2-a]pyrazin-3(7H)-one] the “absorbance at 254 nm” value ([2]; 19.08 μg furimazine in 0.5 mL PBS pH 6.8, 30 minutes at room temperature) was 0.0571, the “calculated concentration of furimazine in solution” value ([2]; Beer's law from absorbance at 254 nm, 19.08 μg in 0.5 mL PBS pH 6.8) was 0.0082 mM and the “Area Percent, peak at retention time 6.104-6.109 min” value ([1]; Example 35) was 0.705%. The “Area Percent, peak at retention time 6.541-6.548 min” value ([1]; Example 35) was 1.407%, the “Area Percent, peak at retention time 7.949-7.957 min” value ([1]; Example 35) was 1.030% and the “Area Percent, peak at retention time 5.028-5.038 min (main peak)” value ([1]; Example 35, furimazine, 100 μM) was 96.858%.

In the case of hydroxypropyl-β-cyclodextrin [HP-β-CD], the “signal enhancement compared to Nano-Glo buffer alone” value [3] is reported as 15 to 20%.
